Counter-ions that a name gives are not always drawn.
Legend:
[1] = Adverse reactions in patients
Text: (§1) The course for both experimental group and control group are four weeks.

[2] = test system: platelet aggregation induced by ADP; test: Platelet aggregation induced by ADP in patients after drug administration; assay type: in vivo, human; details: for platelet aggregation rate: patients, x ± s
Text: • a. The patients with chronic cardiovascular and cerebrovascular diseases, and the course of disease >1 month; • b.
• a. The patients attacked by acute myocardial infarction or stroke in one month; • b. […] The patients with medical history of serious liver, kidney disease, or digestive tract or other organ bleeding; • d. The persons with reduced granulocytes or platelets.
as §1
(§2) The basic drugs taken by the patients for treating their cardiovascular and cerebrovascular diseases were maintained the same in terms of dosage and usage during the period for observation, but they are forbidden to take anticoagulant drug, such as aspirin, dipyridamole or Phenylbutazone. The administration was stopped at the end of 4th week and re-examination was performed to observe the change of indexes.
Induction experiment of two different concentrations of ADP (0.5 μmol/L and 1.0 μmol/L) was performed and re-examination was conducted on the 2nd and 4th weekends.
In Table 1, 0.5 and 1.0 represent the induction rate of 0.5 μmol/L of ADP and 1.0 μmol/L of ADP respectively.

bleeding time = test: Bleeding time (Duke Method) in patients; assay type: in vivo, human
Procedure: as §2
(§3) Duke Method and Test Tube Method were used for determination respectively. The same method was used for the same case. The values are compared before and after the determination, and the changing values are calculated.

[3] = Laboratory examination: liver function, blood and urine routine; assay type: in vivo, human
clotting time = test: Clotting time (Test Tube Method) in patients; assay type: in vivo, human
Procedure: as §2, §3

[4] = four weeks of one tablet per day oral, induction with 0.5 μmol/L ADP
[5] = four weeks of one tablet per day oral, induction with 1.0 μmol/L ADP
[6] = two weeks of one tablet per day oral, induction with 0.5 μmol/L ADP
[7] = two weeks of one tablet per day oral, induction with 1.0 μmol/L ADP
[8] = after taking drug (four-week course)
[9] = before taking drug (baseline of the group)

| liver function, blood and urine routine ([3]; in vivo) | SMILES | cases with skin rash, hoarseness and mild dysphagia ([1]; human, in vivo, 2 weeks) [cases] | adverse reactions incidence ([1]; human, in vivo, 4 weeks) [%] | incidence of conjunctiva bleeding, purpura and bleeding spot on skin ([1]; human, in vivo, 4 weeks) [%] | platelet aggregation rate [2, 4] [%] | platelet aggregation rate [2, 5] [%] | platelet aggregation rate [2, 6] [%] | platelet aggregation rate [2, 7] [%] | bleeding time (bleeding time; [8]) [min] | bleeding time (bleeding time; [9]) [min] | adverse reactions incidence ([1]; four-week course, mainly dizziness, nausea, conjunctiva bleeding and bleeding spot on skin) [%] | platelet aggregation rate compared with the control group (TCP) ([2]; after taking drugs for 4 weeks) | clotting time (clotting time; [8]) [min] | clotting time (clotting time; [9]) [min] | liver function, blood and urine routine ([3]; before taking drugs vs after taking drugs for 4 weeks, all within normal limits) |
| --- | --- | --- | --- | --- | --- | --- | --- | --- | --- | --- | --- | --- | --- | --- | --- |
| do not change significantly | Clc1ccccc1CN1CCc2sccc2C1 [TCP, ticlopidine hydrochloride, reference compound] | 2 | 11.87 | 3.45 | 32.8 ± 23.1 | 37.2 ± 25.4 | 28.3 ± 23.8 | 35.3 ± 20.8 | 2.29 ± 1.40 | 1.73 ± 1.35 | – | – | – | – | – |
| – | CC(C)=CCC[C@](C)(O)[C@H]1CC[C@]2(C)[C@@H]1[C@H](O)C[C@@H]1[C@@]3(C)CC[C@H](O)C(C)(C)[C@@H]3[C@@H](O[C@@H]3O[C@H](CO)[C@@H](O)[C@H](O)[C@H]3O)C[C@]12C [ginsenoside Rh1] | – | – | – | 28.8 ± 23.4 | 34.3 ± 25.6 | 28.7 ± 22.5 | 35.4 ± 23.4 | 1.89 ± 1.11 | 1.72 ± 1.20 | 6.86 | smaller than that of the control group obviously | 7.83 ± 2.55 | 7.17 ± 2.59 | do not change significantly |

Source: patent publication US20100286074A1, “PHARMACEUTICAL USE OF G[…] MIXTURE THEREOF AND PHARMACEUTICAL COMPOSITION OF G[…] USE THEREOF” (LIMIN PHARMACEUTICAL FACTORY, LIVZON GROUP, priority 2007, published 2010)
